Results: US11807635B2, “Nitrile derivative that acts as inhibitor of dipeptidyl peptidase 1 and use thereof” (HAISCO PHARMACEUTICALS PTE. LTD, priority 2020, dated 2023)

Experiments:
[1] = Pharmacokinetic experiment in rats; format: in vivo; conditions: rat, male SD rats, plasma; for Vd: read-out: Vdss
Experimental: 1.1 Test animals: Male SD rats, about 220 g, 6-8 weeks old, 6 rats/compound. The rats were purchased from CHENGDU DOSSY EXPERIMENTAL ANIMALS CO., LTD.
1.2 Test design: On the day of the experiment, 6 SD rats were randomly grouped according to their body weight. The rats were fasted but given water for 12-14 h one day before the administration, and were fed 4 h after the administration.
Before and after the administration, 0.1 ml of blood was taken from the orbit of the rats under isoflurane anesthesia and placed in an EDTAK2 centrifuge tube. The blood was centrifuged at 5000 rpm and 4° C. for 10 min to collect plasma. Blood sampling time point for the intravenous administration group: 0, 5, 15, 30 min, 1, 2, 4, 6, 8, and 24 h; and blood sampling time point for the intragastric administration group: 0, 5, 15, 30 min, 1, 2, 4, 6, 8, and 24 h. Before analysis and detection, all samples were stored at −80° C.

[2] = biological target: Recombinant human DPP1 enzyme (Homo sapiens (Human), UniProt P53634); experiment: In vitro DPP1 enzyme activity assay; format: biochemical; conditions: recombinant human DPP1 activated with cathepsin L, substrate Gly-Arg-AMC, fluorescence; read-out: DPP1 inhibitory activity IC50
Recombinant human DPP1 enzyme, sequence (P53634 25-134): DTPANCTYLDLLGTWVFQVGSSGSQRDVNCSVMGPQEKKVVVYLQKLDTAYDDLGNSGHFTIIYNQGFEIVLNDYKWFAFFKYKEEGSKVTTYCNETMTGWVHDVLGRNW
Recombinant human DPP1 enzyme, sequence (P53634 231-394): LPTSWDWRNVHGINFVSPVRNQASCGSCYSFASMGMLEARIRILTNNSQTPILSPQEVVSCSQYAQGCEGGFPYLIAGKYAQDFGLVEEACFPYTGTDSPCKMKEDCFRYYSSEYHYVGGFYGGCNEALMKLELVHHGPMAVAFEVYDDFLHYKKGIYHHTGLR
Recombinant human DPP1 enzyme, sequence (P53634 395-463): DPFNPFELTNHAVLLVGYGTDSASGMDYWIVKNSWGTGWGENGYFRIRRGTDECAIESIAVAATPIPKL
Experimental: Recombinant human DPP1 enzyme (R&D Systems, Cat. No. 1071-CY) at a final concentration of 100 μg/mL was mixed with recombinant human cathepsin L (R&D Systems, Cat. No. 952-CY) at a final concentration of 20 μg/mL were mixed and incubated at room temperature for 1 hour to activate the DPP1 enzyme. The activated DPP1 enzyme was diluted 100-fold, and 5 μL of compounds at different concentrations and 5 μL of the diluted DPP1 enzyme were added to a 384-well plate and incubated at room temperature for 30 minutes. […] IC50 values were calculated using the DosResp function of the Origin2019 software.

Row | IC50 [2] | SMILES | also measured
1 | – | Cn1c(=O)oc2ccc(-c3ccc(C[C@@H](C#N)NC(=O)[C@@H]4CNCCCO4)c(F)c3)cc21 [Compound 1, (S)—N—((S)-1-cyano-2-(2-fluoro-4-(3-methyl-2-oxo-2,3-dihydrobenzo[d]oxazol-5-yl)phenyl)ethyl)-1,4-oxazepane-2-carboxamide] | AUC(0-t) ([1]; iv, intravenously 1 mg/kg): 9500 ng·h/mL; clearance ([1]; iv, intravenously 1 mg/kg): 1.66 mL/min/kg; Vd ([1]; iv, intravenously 1 mg/kg): 0.753 L/kg; bioavailability ([1]; po, intragastrically 3 mg/kg): > 100%; AUC(0-t) ([1]; po, intragastrically 3 mg/kg): 31200 ng·h/mL
2 | 6.7 nM | N#C[C@H](Cc1ccc(-c2ccc3c(c2)CCNC3=O)cc1F)NC(=O)[C@@H]1CNCCCO1 [Compound 10, (S)—N—((S)-1-cyano-2-(2-fluoro-4-(1-oxo-1,2,3,4-tetrahydroisoquinolin-6-yl)phenyl)ethyl)-1,4-oxazepane-2-carboxamide] | –
3 | 239 nM | N#C[C@H](Cc1ccc(C#CC2CCCC2)cc1F)NC(=O)[C@@H]1CNCCCO1 [Compound 11, (S)—N—((S)-1-cyano-2-(4-(cyclopentylethynyl)-2-fluorophenyl)ethyl)-1,4-oxazepane-2-carboxamide] | –
4 | 21 nM | Cc1nc(-c2ccc(C[C@@H](C#N)NC(=O)[C@@H]3CNCCCO3)c(F)c2)sc1C#N [Compound 12, (S)—N—((S)-1-cyano-2-(4-(5-cyano-4-methylthiazol-2-yl)-2-fluorophenyl)ethyl)-1,4-oxazepane-2-carboxamide] | –
5 | 71 nM | N#C[C@H](Cc1ccc(-c2nc3ccccc3s2)cc1F)NC(=O)[C@@H]1CNCCCO1 [Compound 13, (S)—N—((S)-2-(4-(benzo[d]thiazol-2-yl)-2-fluorophenyl)-1-cyanoethyl)-1,4-oxazepane-2-carboxamide] | –
6 | 12.9 nM | CN1CCN(Cc2ccc(-c3ccc(C[C@@H](C#N)NC(=O)[C@@H]4CNCCCO4)c(F)c3)cc2)CC1 [Compound 14, (S)—N—((S)-1-cyano-2-(3-fluoro-4′-((4-methylpiperazin-1-yl)methyl)-[1,1′-biphenyl]-4-yl)ethyl)-1,4-oxazepane-2-carboxamide] | –
7 | 33 nM | Cc1csc(-c2ccc(C[C@@H](C#N)NC(=O)[C@@H]3CNCCCO3)c(F)c2)n1 [Compound 15, (S)—N—((S)-1-cyano-2-(2-fluoro-4-(4-methylthiazol-2-yl)phenyl)ethyl)-1,4-oxazepane-2-carboxamide] | –
8 | 7.4 nM | N#Cc1ccc(-c2ccc(C[C@@H](C#N)NC(=O)[C@@H]3CNCCCO3)c(F)c2)cc1C1CC1 [Compound 17, (S)—N—((S)-1-cyano-2-(4′-cyano-3′-cyclopropyl-3-fluoro-[1,1′-biphenyl]-4-yl)ethyl)-1,4-oxazepane-2-carboxamide] | –
9 | 4.9 nM | N#Cc1ccc(-c2ccc(C[C@@H](C#N)NC(=O)[C@@H]3CNCCCO3)c(F)c2)cc1C(F)(F)F [Compound 29, (S)—N—((S)-1-cyano-2-(4′-cyano-3-fluoro-3′-(trifluoromethyl)-[1,1′-biphenyl]-4-yl)ethyl)-1,4-oxazepane-2-carboxamide] | –
10 | 4 nM | Cn1c(=O)oc2ccc(-c3cc(F)c(C[C@@H](C#N)NC(=O)[C@@H]4CNCCCO4)cn3)cc21 [Compound 35, (S)—N—((S)-1-cyano-2-(4-fluoro-6-(3-methyl-2-oxo-2,3-dihydrobenzo[d]oxazol-5-yl)pyridin-3-yl)ethyl)-1,4-oxazepane-2-carboxamide] | –
11 | – | Cn1c(=O)oc2ccc(-c3ccc(C[C@@H](C#N)NC(=O)[C@@H]4CNCCCO4)cc3)cc21 [INS1007, reference compound] | AUC(0-t) ([1]; iv, intravenously 1 mg/kg): 8400 ng·h/mL; clearance ([1]; iv, intravenously 1 mg/kg): 2.08 mL/min/kg; Vd ([1]; iv, intravenously 1 mg/kg): 0.738 L/kg; bioavailability ([1]; po, intragastrically 3 mg/kg): 88.1%; AUC(0-t) ([1]; po, intragastrically 3 mg/kg): 22200 ng·h/mL

Row | SMILES | IC50 [2] | also measured
12 | COC1CNCC(C(=O)N[C@H](C#N)Cc2ccc(-c3ccc(S(F)(F)(F)(F)F)cc3)cc2F)OC1 (stereo partly drawn) [Compound 43, N—((S)-1-cyano-2-(3-fluoro-4′-(pentafluoro-16-sulfanyl)-[1,1′-biphenyl]-4-yl)ethyl)-6-methoxy-1,4-oxazepane-2-carboxamide] | 0.3 nM | –
